For one assay, the system named is Kasumi-1 cells. Description: Cell growth inhibition (ATPlite), Kasumi-1. It is filed as cell-based. The conditions noted are these: Homo sapiens, Kasumi-1, 72 hours, mean±SEM, n = 3, read-out: Inhibition of Tumor Cell Growth (IC50, μM) Kasumi-1. How it is done: (§1) The human acute promyelocytic leukemia cell line HL-60, the acute myeloid leukemia cell line Kasumi-1, the lung carcinoma cell line A549, the embryonic kidney cell line HEK293, and the hepatocellular carcinoma cell line HepG2 were purchased from ATCC. HL-60 and A549 cells were grown in RPMI-1640 media containing 10% fetal bovine serum (FBS). Kasumi-1 cells were grown in RPMI-1640 media containing 20% FBS. HEK293 and HepG2 cells were grown in Eagles Minimal Essential Media containing 10% FBS. Cells were plated in 96-well microtiter plates at a density of either 2000 cells/well (A549 cells) or 5000 cells/well and incubated overnight at 37° C. Cell growth was measured by the ATPlite™ istep Kit (PerkinElmer, Waltham, Mass.) according to the manufacturer's instructions. ATPlite™ uses firefly luciferase to indirectly quantify the level of adenosine triphosphate (ATP) as a measure of proliferation and cytotoxicity of cultured mammalian cells. Compounds were diluted in the appropriate cell culture media for each cell type at incremental concentrations ranging from 0.1 nM to 100 tiM. […] Luminescence, quantified as relative luciferase units (RLU), was measured on an Envision plate reader (PerkinElmer). For each replicate, the mean and standard deviation of the RLU at each concentration of compound was calculated. […]

A further assay deals with HEPG2 cells. Description: Cell growth inhibition (ATPlite), HEPG2. It is filed as cell-based. The conditions noted are these: Homo sapiens, HEPG2, 72 hours, mean±SEM, n = 3, read-out: Inhibition of Tumor Cell Growth (IC50, μM) HEPG2. How it is done: as §1
Background: Cellular ATP, detected with luciferase, serves as a proxy for viable cell number.

Another assay deals with A549 cells. Description: Cell growth inhibition (ATPlite), A549. The class given is cell-based. The conditions noted are these: Homo sapiens, A549, 72 hours, mean±SEM, n = 3, read-out: Inhibition of Tumor Cell Growth (IC50, μM) A549. How it is done:
as §1

For assay [1], the system named is HL-60 cells. Description: Cell growth inhibition (ATPlite), HL-60. It is filed as cell-based, human. The note with it: HL-60, 72 hours. Here is the method: as §1, with “cells.” for “cells. Compounds were diluted in the appropriate cell culture media for each cell type at incremental concentrations ranging from 0.1 nM to 100 tiM.”
HL-60 cells were plated in 96-well microtiter plates in RPMI-1640 media containing 10% FBS at a density of 5000 cells/well. […] Cell growth was measured using the ATPlite™ istep Kit. […]

The test system of assay [2] is HL-60 cells. Briefly: Induction of apoptosis (Annexin V/Sytox Red, FACS). The note with it: HL-60, 10 μM, 48 hours, versus vehicle (DMSO), FIG. 2. The class given is cell-based, human. Here is the method:
HL-60 cells were incubated under similar conditions to the cell growth assay described above (i.e. 50,000 cell/well of a 24-well plate, incubated in cell culture media in the presence of vehicle or compound for 48 hours at 37° C. in an incubator with 5% CO2). Apoptosis was determined by using Annexin V/Sytox Red staining (Life Technologies/Invitrogen) followed by assaying with fluorescence-activated cell sorting (FACS) according to standard protocols. In this assay, vehicle constituted DMSO and the test compound (Compound 101) was diluted to 10 μM with cell culture media from a 10 mM stock solution of Compound 101 in DMSO. The results of the apoptosis assay are described in FIG. 2. […] Compound 101 decreased the number of viable cells in the assay by over 60% and produced nearly a 50% increase in necrotic cells and over a 15% increase in apoptotic cells.

A further assay concerns Cynomolgus monkeys. Description: Blood cell induction (peripheral blood neutrophils). The class given is in vivo. Here is the method:
Test compound was evaluated in an animal model for the ability to increase blood cell count, and particularly peripheral blood neutrophils, according to the following protocol. A test compound (Compound 101) was formulated in DMSO:PEG400:PBS at a concentration of 2 mg/mL. Cynomolgus monkeys where then dosed with either vehicle or the test compound via an IV injection for three days. Doses were administered in the morning and then at 5, and 10 hours later. On Day four, a single dose was administered. Blood samples were then collected at the start of the experiment, at Day 4 at 3 hours, 6 hours, and 9 hours after the single dose, and at Day 7. Blood samples were collected and analyzed on a commercial hematology system (ADVIA 2120). The results for neutrophil evaluation are graphically represented in FIG. 3 for both vehicle and Compound 101.

For a further assay, the system named is HEK293 cells. Briefly: Cell growth inhibition (ATPlite), HEK293. The conditions noted are these: Homo sapiens, HEK293, 72 hours, mean±SEM, n = 3, read-out: Inhibition of Tumor Cell Growth (IC50, μM) HEK293. It is filed as cell-based. How it is done:
as §1

Broadly, the IC50 is the concentration at which inhibition is half-maximal. `Cc1cc(C)cc(N2C(=O)/C(=C(\NNC(=O)CCC(N)=O)c3ccccc3)c3ccc(C(F)(F)F)cc32)c1` [Compound 101]: the concentration for half-maximal inhibition (IC50) in the assay with Kasumi-1 cells was 12.1 ± 2.4 µM; in the assay on HEPG2 cells, 0.9 ± 0.1 µM; with A549 cells, 6.1 ± 2.5 µM; in the assay with HL-60 cells [1] (Homo sapiens, mean±SEM, n = 5, read-out: Inhibition of Tumor Cell Growth (IC50, μM) HL-60), 5 ± 2.8 µM; with HEK293 cells it was 1.4 ± 0.04 µM. Besides, the “effect on HL-60 cell growth (dose response curve, FIG. 1)” value in the assay on HL-60 cells [1] (versus Blank) is “dose-dependent effect”. For the same compound, in the assay on HL-60 cells [2], the “increase in apoptotic cells” value was more than 15%. Moreover, the “increase in necrotic cells” value in the assay with HL-60 cells [2] is listed as approximately 50%. Besides, the cytotoxicity at 10 µM with HL-60 cells [2] (Homo sapiens, read-out: decrease in number of viable cells) is more than 60%. Besides, the “neutrophil count following three days without dosing” value in the assay on Cynomolgus monkeys (Day 7 time point) is reported as “returned to a level similar to the vehicle”. Further, in the assay on Cynomolgus monkeys (IV, Day 4, 9 hours after the single dose), the “significance of neutrophil count increase versus vehicle” value was “statistically significant”. Besides, the “neutrophil count versus vehicle after the three day dosing phase” value in the assay on Cynomolgus monkeys (IV, three doses daily for three days, single dose Day 4, Day 4 samples, FIG. 3) is recorded as “higher neutrophil count than vehicle”.

The values are drawn from patent publication US10420748B2, “Methods of treatment associated with the granulocyte colony-stimulating factor receptor” (LIGAND PHARMACEUTICALS INCORPORATED, priority 2013, dated 2019).
